For this assay, the system named is P388 leukemia ip, CD2F1 mice, survival T/C. The assay is described as follows: NCI In Vivo Anticancer Drug Screen. Data for tumor model P388 Leukemia (intraperitoneal) in CD2F1 (CDF1) mice. The following applies: endpoint: median survival time, higher = longer survival. Summed up: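 Mice carrying the transplanted tumor received test compound or vehicle. Survival was recorded in each group, and the value is the treated-group measurement divided by that of the vehicle-treated control group.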

Where [1] appears, read: dose: 50.0 mg/kg/injection, schedule: Q01DX009 (ip), vehicle: saline.
[2] abbreviates: dose: 100.0 mg/kg/injection, schedule: Q01DX009 (ip), vehicle: saline.
The mark [3] stands for this setting: dose: 50.0 mg/kg/injection, schedule: Q01DX005 (ip), vehicle: saline with Tween-80.
Setting [4] is: dose: 100.0 mg/kg/injection, schedule: Q01DX005 (ip), vehicle: saline with Tween-80.
Setting [5] is: dose: 200.0 mg/kg/injection, schedule: Q01DX005 (ip), vehicle: saline with Tween-80.

Where “and” joins values, the source holds several entries; their conditions need not be identical. Equal entries are not always repeated. Inconclusive results and toxic doses are left out.

For the compound `C=C1CCC2C(OC(=O)C2(COC(C)=O)OC(C)=O)C2C(=C)C(OC(C)=O)CC12` (stereo unspecified), the T/C by setting is: (dose: 11.25 mg/kg/injection, schedule: Q01DX005 (ip), vehicle: Klucel (hydroxypropylcellulose) (HPC)) 100 % of control; (dose: 22.5 mg/kg/injection, schedule: Q01DX005 (ip), vehicle: Klucel (hydroxypropylcellulose) (HPC)) 97 % of control; (dose: 45.0 mg/kg/injection, schedule: Q01DX005 (ip), vehicle: Klucel (hydroxypropylcellulose) (HPC)) 103 % of control; (dose: 90.0 mg/kg/injection, schedule: Q01DX005 (ip), vehicle: Klucel (hydroxypropylcellulose) (HPC)) 104 % of control; (dose: 180.0 mg/kg/injection, schedule: Q01DX005 (ip), vehicle: Klucel (hydroxypropylcellulose) (HPC)) 99 % of control.

For `Nc1nc(N)c2nc(CN(CCO)c3ccc(C(=O)NC(CCC(=O)O)C(=O)O)cc3)cnc2n1` (stereo unspecified), the T/C is, setting by setting: (dose: 1.0 mg/kg/injection, schedule: Q01DX009 (ip), vehicle: Klucel (hydroxypropylcellulose) (HPC)) 190 % of control; (dose: 1.2 mg/kg/injection, schedule: Q01DX009 (ip), vehicle: Klucel (hydroxypropylcellulose) (HPC)) 153 % of control; (dose: 1.8 mg/kg/injection, schedule: Q01DX009 (ip), vehicle: Klucel (hydroxypropylcellulose) (HPC)) 181 % of control; (dose: 2.0 mg/kg/injection, schedule: Q01DX009 (ip), vehicle: Klucel (hydroxypropylcellulose) (HPC)) 205 % of control; (dose: 2.6 mg/kg/injection, schedule: Q01DX009 (ip), vehicle: Klucel (hydroxypropylcellulose) (HPC)) 195 % of control; (dose: 4.0 mg/kg/injection, schedule: Q01DX009 (ip), vehicle: Klucel (hydroxypropylcellulose) (HPC)) 204 % of control and 223 % of control. Moreover, the T/C (dose: 6.0 mg/kg/injection, schedule: Q01DX009 (ip), vehicle: Klucel (hydroxypropylcellulose) (HPC)) is 92 % of control.

As for `O=C(O)Cc1ccc(N2N=C(c3ccccc3)CC2=O)cc1`, the T/C (dose: 60.0 mg/kg/injection, schedule: Q01DX005 (ip), vehicle: saline with Tween-80) was 98 % of control and the T/C (dose: 120.0 mg/kg/injection, schedule: Q01DX005 (ip), vehicle: saline with Tween-80) was 92 % of control.

In the case of `COc1ccc(C(=S=O)N(C)c2ccccc2)cc1`, the T/C is 100 % of control under setting [1]; 100 % of control under setting [2]; 90 % of control (dose: 200.0 mg/kg/injection, schedule: Q01DX009 (ip), vehicle: saline).

For `CCOC(C#CC(=O)C(C)C)OCC`, the T/C by setting is: (dose: 60.0 mg/kg/injection, schedule: Q01DX005 (ip), vehicle: saline) 101 % of control; (dose: 120.0 mg/kg/injection, schedule: Q01DX005 (ip), vehicle: saline) 98 % of control; (dose: 240.0 mg/kg/injection, schedule: Q01DX005 (ip), vehicle: saline) 101 % of control.

As for `Cc1ccccc1NP1(=O)OCCCN1Cc1ccc(Cl)c(Cl)c1` (stereo unspecified), the T/C was 100 % of control under setting [3], 98 % of control under setting [4] and 93 % of control under setting [5].

In the case of `[N-]=[N+]=NC12CC3CC4C5CC(CC41)CC2[C@H]5C3`, the T/C was 97 % of control under setting [3], 99 % of control under setting [4] and 100 % of control under setting [5].

As for `COC1OC(COC(=O)c2ccccc2)C(=O)C(OC(=O)c2ccccc2)C1N(O)c1ccccc1` (stereo unspecified), the T/C was 99 % of control (dose: 7.5 mg/kg/injection, schedule: Q01DX005 (ip), vehicle: Klucel (hydroxypropylcellulose) (HPC)); 104 % of control (dose: 15.0 mg/kg/injection, schedule: Q01DX005 (ip), vehicle: Klucel (hydroxypropylcellulose) (HPC)); 95 % of control (dose: 30.0 mg/kg/injection, schedule: Q01DX005 (ip), vehicle: Klucel (hydroxypropylcellulose) (HPC)).

For `CCOC(=O)C(CCC[n+]1cc2ccccc2c2ccccc21)C(=O)OCC`, the T/C runs as follows: (dose: 50.0 mg/kg/injection, schedule: Q01DX005 (ip), vehicle: saline) 106 % of control; (dose: 100.0 mg/kg/injection, schedule: Q01DX005 (ip), vehicle: saline) 101 % of control; (dose: 200.0 mg/kg/injection, schedule: Q01DX005 (ip), vehicle: saline) 101 % of control.

Regarding `O=C(O)C1(Br)CC2(C1)CC(Br)(C(=O)O)C2` (stereo unspecified), the T/C reads like this: (dose: 100.0 mg/kg/injection, schedule: Q04DX002 (ip), vehicle: other) 94 % of control; (dose: 200.0 mg/kg/injection, schedule: Q04DX002 (ip), vehicle: other) 91 % of control; (dose: 400.0 mg/kg/injection, schedule: Q04DX002 (ip), vehicle: other) 103 % of control.

Regarding `CC(=O)c1ccc2c(c1)N(CCCN(C)C)c1ccccc1S2`, the T/C (dose: 3.12 mg/kg/injection, schedule: Q01DX009 (ip), vehicle: saline) is 94 % of control and 97 % of control; the T/C (dose: 6.25 mg/kg/injection, schedule: Q01DX009 (ip), vehicle: saline) is 93 % of control and 94 % of control; the T/C (dose: 12.5 mg/kg/injection, schedule: Q01DX009 (ip), vehicle: saline) is 103 % of control and 93 % of control; the T/C under setting [1] was 101 % of control; the T/C under setting [2] was 116 % of control.

For `Cn1ncc2c(N)c(C#N)c(=O)[nH]c21`, where the note is “dose: 25.0 mg/kg/injection, schedule: Q01DX001 (ip), vehicle: saline with Tween-80”, the T/C is 102 % of control.

Turning to `CCO/C(C)=[N+](/[O-])S(=O)(=O)c1c(C)cc(C)cc1C`, the T/C reads like this: (dose: 100.0 mg/kg/injection, schedule: Q01DX001 (ip), vehicle: saline) 103 % of control; (dose: 200.0 mg/kg/injection, schedule: Q01DX001 (ip), vehicle: saline) 100 % of control; (dose: 400.0 mg/kg/injection, schedule: Q01DX001 (ip), vehicle: saline) 104 % of control.

For `CCN(CC)CCOC(=O)c1ccc(NC(=S)Nc2ccccc2)cc1`, the T/C is, setting by setting: under setting [3], 98 % of control; under setting [4], 90 % of control.

The values above are taken from PubChem BioAssay AID330 (DTP/NCI, 2004).
